From patent publication US6372752B1 (priority 2000, dated 2002) come the findings set out here.

SMILES strings stand for the structures. Where a name gives a salt, the structure may show the parent alone. Read-outs that look alike come from different tables or passages of the source.

The subject of data set [1] is Bacillus Calmet-Guerin (BCG), Pasteur strain, of Mycobacterium bovis. Put plainly: microbe, parasite or virus in culture. The class given is cell-based. The following applies: Mycobacterium tuberculosis variant bovis BCG.
For the next data set, the target named is InhA (Mycobacterium tuberculosis, UniProt P9WGR1). Put plainly: InhA inhibition assay (NADH consumption, absorbance at 340). In kind it is biochemical. The following applies: for inhibition at 40 µM: 40 μM compound, read-out: Percentage Inhibition (@ 40 μM).
Sequence of InhA (P9WGR1 whole entry, looked up): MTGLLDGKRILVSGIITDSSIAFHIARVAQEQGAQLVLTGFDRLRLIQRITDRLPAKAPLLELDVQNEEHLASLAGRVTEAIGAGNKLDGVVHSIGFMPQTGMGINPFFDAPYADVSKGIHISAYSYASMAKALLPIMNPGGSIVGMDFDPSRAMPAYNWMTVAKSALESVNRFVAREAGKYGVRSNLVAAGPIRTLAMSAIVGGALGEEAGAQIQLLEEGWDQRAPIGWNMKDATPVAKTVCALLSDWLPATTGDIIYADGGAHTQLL
A further data set deals with h. Lung. Put plainly: Cell Tox (h. Lung). The conditions noted are these: h. Lung cells.
The subject of a further data set is m. Embryo. Kind of data set: Cell Tox (m. Embryo). The conditions noted are these: m. Embryo cells.
Another data set deals with h. Kidney. Kind of data set: Cell Tox (h. Kidney). The conditions noted are these: h. Kidney cells.
The mark [2] stands for this setting: read-out: IC50's for BCG growth.

For the molecule `NNC(=O)c1ccncc1` [isoniazid, isonicotinic acid hydrazide], the IC50 in data set [1] (read-out: BCG Growth IC-50) and in data set [1] (setting [2]) was 3000 nM each time.
With `CCCCCCCCCCCCCCCC(=O)SCCNC(=O)CCNC(=O)[C@H](O)C(C)(C)COP(=O)(O)OP(=O)(O)OC[C@H]1O[C@@H](n2cnc3c(N)ncnc32)[C@H](O)[C@@H]1OP(=O)(O)O` [palmitoyl-CoA, reference compound], the inhibition at 375 µM at InhA (at 375 uM, read-out: inhibition by internal standard) is around 40%.
On to `O=C(c1ccc2[nH]ccc2c1)N1CCN(c2cccc(Cl)c2)CC1` [Compound 58], for which the IC50 at InhA is 1210 nM.
The same measure, in the same setting: the figure for `O=C(c1ccc2[nH]ccc2c1)N1CCN(c2ccc(Cl)cc2)CC1` [Compound 56] is 4200 nM.
In the case of `O=C(c1ccc(Cl)cc1)C1CCN(C(=O)c2ccc3[nH]ccc3c2)CC1` [Compound 5, [4-(4-Chlorobenzoyl)-piperidin-1-yl]-(1H-indol-5-yl)-methanone], the inhibition at 40 µM on InhA (Table 6) was determined as 97%.
On to `O=C(c1ccc2[nH]ccc2c1)N1CCN(C2c3ccccc3-c3ccc([N+](=O)[O-])cc32)CC1` (stereo not shown) [Compound 71], for which the “Cell Tox (h. Lung)” value with h. Lung was 37 µM. Besides, the “Cell Tox (m. Embryo)” value with m. Embryo worked out at 23 µM. In addition, in the data set on h. Kidney, the “Cell Tox (h. Kidney)” value was determined as 28 µM. Further, the IC50 came out at 120 nM at InhA (Table 9, read-out: InhA IC-50) and 8300 nM in data set [1] (read-out: BCG Growth IC-50).
`O=C(c1ccc2[nH]ccc2c1)N1CCN(C2c3cc(Br)ccc3-c3ccc(Br)cc32)CC1` [Compound 73]: the IC50 was 120 nM on InhA (Table 9, read-out: InhA IC-50) and 6200 nM in data set [1] (read-out: BCG Growth IC-50).
Regarding `CO[C@H]1/C=C/O[C@@]2(C)Oc3c(C)c(O)c4c(O)c(c(/C=N/N5CCN(C)CC5)c(O)c4c3C2=O)NC(=O)/C(C)=C\C=C\[C@H](C)[C@H](O)[C@@H](C)[C@@H](O)[C@@H](C)[C@H](OC(C)=O)[C@@H]1C` [rifampicin], the IC50 in data set [1] (read-out: BCG Growth IC-50) and in data set [1] (setting [2]) was 10 nM in each case.
Take `CC[C@@H](CO)NCCN[C@@H](CC)CO` [ethambutol, ethambutol dihydrochloride]: the IC50 in data set [1] (read-out: BCG Growth IC-50) and in data set [1] (setting [2]) was 10000 nM each time.
The molecule `Cc1ccc(Cl)cc1N1CCN(C(=O)c2ccc3[nH]ccc3c2)CC1` [Compound 57] yielded an IC50 against InhA of 1040 nM.
For `O=C(c1ccc2[nH]ccc2c1)N1CCN(C2c3ccccc3-c3ccccc32)CC1` [Compound 70], in the data set with h. Lung, the “Cell Tox (h. Lung)” value fell in the range of 24 to 48 µM. Besides, the “Cell Tox (m. Embryo)” value in the data set on m. Embryo was in the range of 46 to 52 µM. In addition, the “Cell Tox (h. Kidney)” value in the data set with h. Kidney lay within 35 to 44 µM. Besides, the IC50 in data set [1] (read-out: BCG Growth IC-50) is 8300 nM.
Take `O=C(c1ccc2[nH]ccc2c1)N1CCN(C2c3ccccc3-c3cc([N+](=O)[O-])ccc32)CC1` (stereo not shown) [Compound 72]: the “Cell Tox (h. Lung)” value in the data set with h. Lung stood at 34 µM. Moreover, the “Cell Tox (m. Embryo)” value in the data set on m. Embryo is 23 µM. In addition, the “Cell Tox (h. Kidney)” value in the data set with h. Kidney was 29 µM. The IC50 was 130 nM at InhA (Table 9, read-out: InhA IC-50) and 2800 nM in data set [1] (read-out: BCG Growth IC-50).
For `O=C(Cc1ccccc1F)NCCc1ccc(Cl)cc1` [Compound 1, N-[2-(4-Chlorophenyl)-ethyl]-2-(2-fluoro-phenyl)acetamide], the inhibition at 40 µM on InhA (Table 2) amounted to 82%.
As to `O=C(c1ccc2[nH]ccc2c1)N1CCN(c2cccc(C(F)(F)F)c2)CC1` [Compound 59], at InhA, the IC50 stood at 1890 nM.
`CCCC(=O)C1(c2ccccc2)CCN(C(=O)c2ccc3[nH]ccc3c2)CC1` [Compound 4, 1-[1-(1H-Indole-5-carbonyl)-4-phenyl-piperidin-4-yl]-butan-1-one]: the “Cell Tox (h. Lung)” value in the data set on h. Lung was in the range of 33 to 50 µM. Further, the “Cell Tox (m. Embryo)” value with m. Embryo was in the range of 46 to 50 µM. Besides, the “Cell Tox (h. Kidney)” value in the data set with h. Kidney lay within 23 to 48 µM. In addition, the results for the IC50 (on InhA; in data set [1] (read-out: BCG Growth IC-50)) were 230 nM and above 25000 nM, respectively.

For orientation: inhibition means the drop in the measured response relative to a control, in per cent.
